{"source": "ChEMBL document CHEMBL1147240", "about": "“Lactones from the leaves of Litsea japonica and their anti-complement activity” (J Nat Prod, 2003)", "assay": "Inhibition of human serum complement system-mediated hemolysis", "data": [{"smiles": "CC/C=C/CCCCCCCC/C=C/C1=CC(C)OC1=O", "note": "(single isomer, unassigned) [LITSEALACTONE A]", "values": [{"measurement": "IC50", "result": 787, "unit": "µM"}]}, {"smiles": "C=C/C=C/CCCCCCCC/C=C/C1=C[C@H](C)OC1=O", "note": "[AKOLACTONE B]", "values": [{"measurement": "IC50", "result": 58, "unit": "µM"}]}, {"smiles": "C#CCCCCCCCC/C=C/C1=C[C@H](C)OC1=O", "note": "[HAMABIWALACTONE A]", "values": [{"measurement": "IC50", "result": 714, "unit": "µM"}]}, {"smiles": "C=CCCCCCCCC/C=C/C1=C[C@H](C)OC1=O", "note": "[HAMABIWALACTONE B]", "values": [{"measurement": "IC50", "result": 149, "unit": "µM"}]}, {"smiles": "O=C(/C=C/c1ccc(O)c(O)c1)O[C@H](Cc1ccc(O)c(O)c1)C(=O)O", "note": "[ROSMARINIC ACID]", "values": [{"measurement": "IC50", "result": 180, "unit": "µM"}]}]}
